{
  "source": "patent US6491922B1",
  "about": "“Methods and compounds for treating autoimmune and vascular disease” (Cornell Research Foundation, Inc., priority 1996, dated 2002)",
  "key": {"THP-1 cells": {"tested_on": "THP-1 cells", "experiment": "LPG and LPG fragment binding to THP-1 cells (indirect immunofluorescence, FACS)", "design": "species or system human", "settings": "LPG 1 μM"}, "endothelial cells [1]": {"tested_on": "endothelial cells", "experiment": "^3H-lyso-PI binding to endothelial cells", "design": "species or system human", "settings": "cold-LPG competition at 20×molar excess; n=2", "description": "To evaluate whether lyso-PI may directly bind to endothelial cells, endothelial cells (10^6 per ml) were incubated with ^3H-lyso-PI (1 μM [specific activity, ˜10,000 cpm/nmole], 45 min, 25° C.). As a control, endothelial cells were pretreated with LPG (20 μM, 15 min, 25° C.) before the incubation with ^3H-lyso-PI. Following incubation, the cell suspension was layed onto silicone oil (Silicones FC-50, General Electric, Waterford, N.Y.) and cell-bound ^3H-lyso-PI was separated from free-^3H-lyso-PI by centrifugation (10,000 g, 10 min, room temperature). The amount of ^3H-lyso-PI in the cell pellet and in the supernatant were solubilized in Ecoscint (National Diagnostics, Highland Park, N.J.) and quantitated by a β-emission counter (Beckman Instruments, Palo Alto, Calif.)."}, "[2]": {"tested_on": "murine nitric oxide synthase activity", "experiment": "Nitrite production (Griess assay) in RAW 264.7 cells", "type": "cell-based", "description": "RAW 264.7 cells were treated with LPG 1 μM and simultaneously stimulated with endotoxin and mIFN-γ. Supernatants from each treatment condition were removed at 24, 48, and 72 hours, and nitrite production was measured by the Griess assay.\nTo determine whether LPG can alter NOS expression, a well characterized murine macrophage cell line, RAW 264.7 cells, were used to measure NOS activity. […] Because macrophages encounter LPG usually in the context of entry of the parasite, it was examined whether Leishmania promastigotes, upon entry into macrophages, transfer LPG onto the macrophage cell surfaces and inhibit nitrite production. L. donovani prosmastigotes (“Ld3”) within 15 minutes of attachment to human monocytes, THP-1 cells, or murine peritoneal macrcophages transferred LPG onto the surface of the macrophages, as determined by a monoclonal antibody against LPG and indirect fluorescent microscopy. Two hours after entering murine peritoneal macrophages, Ld3 promastigoes suppressed endotoxin- and IFN-γ induction of NOS activity; the inhibition was parasite dose dependent."}, "GAPDH mRNA": {"tested_on": "GAPDH mRNA", "experiment": "GAPDH control transcript (Northern analysis, nuclear run-off)", "type": "cell-based, human"}, "ICAM-1": {"tested_on": "ICAM-1", "experiment": "Endotoxin-induced ICAM-1 expression on endothelial cells (FACS)", "type": "cell-based, human", "settings": "LPG pretreatment 1 h", "description": "Endothelial cells pretreated with LPG at indicated amounts for 1 h were subsequently challenged with endotoxin. Washed cells incubated with monoclonal antibody specific for E-selectin or ICAM-1 were counter stained with fluorescein labeled anti-murine antibody, fixed and analyzed by FACS."}, "VCAM-1": {"tested_on": "VCAM-1", "experiment": "Endotoxin-induced VCAM-1 expression on endothelial cells (FACS)", "type": "cell-based, human"}, "endothelial cells [3]": {"tested_on": "endothelial cells", "experiment": "Endothelial adhesion to monocytes (MM6) assay", "method": "Endothelial cell were isolated from human umbilical veins by an established method as described. […] In all experiments, 2-4 passages of subcultured endothelial cells were used and were grown on fibronectin-precoated 96-well plates for 2-3 days prior to use.\nOn the day of the experiment, endothelial cells were treated with endotoxin (E. coli, J5, 10 ng/ml) for 4 h. MM6 (1×10^5 cells) were subsequently added to the endotoxin-stimulated endothelial cells. Monocyte adhesion was performed for 20 min at 37° C. Unbound MM6 cells were removed by washing (3×). Adhesion of MM6 onto endothelium was quantitated by counting the bound MM6 cells under a microscope. […] The values of triplicates were averaged, and variations between triplicates were <5%. […] For experiments to examine if LPG could inhibit endotoxin-mediated monocyte adhesion, the endothelial cells were first preincubated with LPG (2 μM) for 1-2 h at 37° C. prior to the addition of endotoxin."}},
  "note": "“Also recorded” adds a separate entry of the source.",
  "data": [
    {"substance": "lipophosphoglycan [LPG]", "values": [
      {"measurement": "time at which LPG binding was obvious", "setting": "THP-1 cells", "value": 16, "unit": "min"},
      {"measurement": "LPG binding", "setting": "THP-1 cells; 1 h", "value": "significant LPG was bound"},
      {"measurement": "inhibition of ^3H-lyso-PI binding", "setting": "endothelial cells [1]", "value": "29±3", "unit": "%"},
      {"measurement": "effect on nitrite production", "setting": "[2]; RAW 264.7, LPG 1 μM simultaneous with endotoxin and IFN-γ", "value": "inhibited the enhancement of nitrite production"},
      {"measurement": "reversal of the inhibition by higher amounts of agonists", "setting": "[2]; higher amounts of endotoxin and IFN-γ", "value": "could not reverse"},
      {"measurement": "effect on constitutive transcription of GAPDH mRNA", "setting": "GAPDH mRNA; THP-1, Northern analysis", "value": "not affected; also recorded: no effect"},
      {"measurement": "effect on GAPDH transcription", "setting": "GAPDH mRNA; nuclear run-on assay (Example 35)", "value": "no effect"},
      {"measurement": "effect on endotoxin-mediated expression of ICAM-1", "setting": "ICAM-1", "value": "strongly suppressed; also recorded: blockage or suppression"},
      {"measurement": "effect on endotoxin-mediated expression of VCAM-1", "setting": "VCAM-1", "value": "strongly suppressed"},
      {"measurement": "inhibition of endotoxin-mediated monocyte adhesion (dose-dependent 0.01 μM to 2 μM)", "setting": "endothelial cells [3]; 2 μM LPG pretreatment, endotoxin 10 ng/ml 4 h", "value": "completely inhibiting"},
      {"measurement": "effect on IL-1β-mediated endothelial cell adhesion", "setting": "endothelial cells [3]; IL-1β 100 U/ml, n=4", "value": "lack of LPG inhibitory activity"},
      {"measurement": "inhibition of endotoxin-mediated monocyte adhesion (time-dependent)", "setting": "endothelial cells [3]; LPG 2 μM, 2 h pretreatment, endotoxin 10 ng/ml 4 h", "value": "completely abrogating"},
      {"measurement": "TNF-α-mediated endothelial adhesion to monocytes", "setting": "endothelial cells [3]; LPG plus TNF-α, TNF-α alone 1,750±100, basal 100±50, n=6", "value": "1,650±130 cell/mm^2"},
      {"measurement": "minimal pretreatment time required for inhibition of endotoxin-mediated monocyte adhesion", "setting": "endothelial cells [3]; endothelial cells", "value": "15 to 30", "unit": "min"},
      {"measurement": "effect on TNF-α-mediated endothelial adhesion to monocytes", "setting": "endothelial cells [3]; n=6", "value": "did not affect"},
      {"measurement": "IC50", "setting": "endothelial cells [3]; read-out: half-maximal inhibitory concentration, endotoxin-mediated monocyte adhesion", "value": "~600", "unit": "nM"}
    ]}
  ]
}
